Measured values as given in the METLIN SMRT retention time set (Domingo-Almenara et al. 2019).

Assay: gradient 5% acetonitrile 3 min, to 50% in 2 min, to 85% in 15 min, held 3 min, 100 µL/min
Conditions: column: Zorbax Extend-C18 2.1 x 50 mm; eluents: water / acetonitrile, 0.1% formic acid
Summary of the method: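 Standards, all pure, were combined into mixtures of ~100 molecules and run at 100 μL/min on a Zorbax Extend-C18 column (2.1 × 50 mm, 1.8 μm) with water and acetonitrile, each containing 0.1% formic acid. A coupled quadrupole time-of-flight mass spectrometer operated in positive and negative ionization mode. Retention time values come from computationally picked adduct peaks, each inspected manually.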

SMILES	RP-LC retention time [s]
COc1cc(CNC(=O)CCc2c(-c3ccc(F)cc3)nc3ccccn23)cc(OC)c1OC	632
Cc1cc(C)cc(NC(=O)Cc2csc3nc(-c4ccccc4)cn23)c1	880
Cc1cc(-c2nnc(-c3ccco3)o2)c(C)n1CC(=O)NCc1ccc(F)c(Cl)c1	882
Cc1[nH]c(C)c(S(=O)(=O)N2CCN(c3ccccn3)CC2)c1C(=O)N1CCCC1	586
c1ccc(-c2nc(CC3CCCNC3)no2)cc1 (stereo not given)	609
COc1cccc(CNC(=O)c2c(C)sc3ccn(Cc4ccc(F)cc4)c(=O)c23)c1	980
Cc1ccc(N2CCC(NC(=O)Nc3cccc(Cl)c3C)C2=O)cc1 (stereo not given)	909
Cc1nc(-c2ccccc2)nc2c1CCC(=O)N2C(C)C	1060
CCc1ccc(NC(=O)Nc2ccc3nnc(C)n3c2)cc1	712
CCn1ccc(C(=O)N2CCCn3nc(-c4cccs4)cc3C2)n1	748
CCOC(=O)c1c(S(=O)(=O)N2CCC(C(=O)NCc3ccc(C)cc3)CC2)c(C)n(CC)c1C	895
Cc1nc(-c2csc(S(=O)(=O)NCc3ccccc3Cl)c2)sc1C	1030
Cc1cc(C(=O)NCC2Cn3cccc3C(=O)N2C)nn1C (stereo not given)	599
COC(=O)c1c(C)[nH]c(C(=O)N2CCCC(C(=O)N3CCN(c4ccccc4)CC3)C2)c1C (stereo not given)	790
CC1CCC(NC(=O)c2nnn(Cc3cccc(F)c3)c2-n2cccc2)CC1 (stereo not given)	1160
COc1ccc(OC)c(CNC(=O)c2c(C)sc3ccn(CC(C)C)c(=O)c23)c1	975
CCc1nc(OCC(=O)Nc2ccccc2C(F)(F)F)c2ccccc2n1	846
CC1CCN(C(=O)c2cn(-c3cc(N4CCOCC4)ncn3)cn2)CC1	729
Cc1cc(C)n(-c2ccc(=O)n(CCNC(=O)c3cncc(Br)c3)n2)n1	636
O=C(c1ccco1)N1CCN(c2ccc(-c3noc(C4CCC4)n3)cc2)CC1	990
CCOc1cccc(-c2noc(CN3C(=O)COc4ccccc43)n2)c1	1050
COc1cc(NC(=O)CSc2ccc(N3CCOCC3)nn2)cc(OC)c1	682
CCn1cnc(S(=O)(=O)N2CCCC(C(=O)Nc3ccc(F)cc3)C2)c1 (stereo not given)	726

SMILES	RP-LC retention time [s]
Cc1ccc(-n2ccc(=O)c(-c3nc(-c4ccc(F)c(Br)c4)no3)n2)cc1	1080
CCC(C)NC(=O)c1cccn1Cc1noc(-c2ccc(Cl)cc2)n1 (stereo not given)	1080
Cc1ccc(-c2nc3ncccn3c2NCc2ccccc2)cc1	729
CCc1ccc(NS(=O)(=O)c2cc3c(s2)CCN(C(=O)C2CCC2)C3)cc1	859
Cc1cccc(C)c1NC(=O)C1CCCN(c2nc3ccccc3nc2C(F)(F)F)C1 (stereo not given)	1170
CCN(CC)C(=O)c1ccc2c(c1)nnn2CCNC(=O)NC(C)(C)C	658
CCCN(CC1CCOC1)C(=O)Nc1cccc(Cl)c1 (stereo not given)	827
CCCCN(CC)S(=O)(=O)c1ccc(C(=O)Nc2nc3c(s2)COc2ccccc2-3)cc1	1230
CN(CCc1noc(-c2ccc(Cl)cc2)n1)C(=O)COc1ccc(F)cc1	993
COc1ccc(C)cc1NC(=O)N1C[C@@H]2C[C@H](NS(C)(=O)=O)[C@H]1C2	717
CCOc1ccc(S(=O)(=O)c2ccc(C)cc2)c2c1no[n+]2[O-]	1050
O=C(NCCN1CCCC1)C1CCN(c2cnn(CC3CC3)c(=O)c2)C1 (stereo not given)	577
CC(C)CCN1C[C@@H](CO)[C@H](c2nc(-c3cccnc3)no2)C1	583
CCN(CC)S(=O)(=O)c1ccc2c(c1)N(CC(=O)NCCC(C)C)C(=O)C1CCCCN21 (stereo not given)	991
COc1ccc(CNC(=O)C2CCN(C(=O)N3CCOc4ccc(Cl)cc43)CC2)cc1	846
Cc1ccc(NC(=O)N2CCC(n3cnc4cc(Cl)ccc4c3=O)CC2)cc1	856
Cc1cccc(OCCc2noc(C3CCNC3)n2)c1 (stereo not given)	646
CCOC(=O)c1csc(NC(=O)c2ccccc2[N+](=O)[O-])n1	721
CC(C)CN1CCN(S(=O)(=O)c2ccc(-c3nnc(C(C)C)o3)o2)CC1	652
CCOc1ccc(N(CC)C(=O)c2nc(N(C)C)c3cnn(C)c3n2)cc1	745
CCOc1ccc(-c2nc(-c3cccc(-c4ccnn4C)c3)no2)cc1OCC	1210
COC(=O)c1cccc(NC(=O)c2c(O)c3cccnc3n(-c3ccc(F)cc3)c2=O)c1	1190
O=c1c2cnn(Cc3ccccc3F)c2ncn1Cc1cccc(C(F)(F)F)c1	928

SMILES	RP-LC retention time [s]
COc1ccc(-c2cc(N3CCC(NC(=O)c4ccc(Br)o4)CC3)n[nH]2)cc1	735
Cc1ccc(NC(=O)N2c3ccccc3CC2c2nc(C3CC3)no2)c(C)c1 (stereo not given)	1080
CCN1C(=O)c2ccccc2Oc2ccc(C(=O)N3CCC4(CC3)OCCO4)cc21	770
CCOCCCNC(=O)c1c(OCC)cc(=O)n2c1CCCCC2	621
CC(C)N1C(=O)c2cccnc2Sc2cc(NC(=O)COc3ccccc3)ccc21	889
CCS(=O)(=O)c1ccc(C(=O)Nc2nc3c(s2)CC(C)CC3)cc1 (stereo not given)	867
COC(=O)c1nnn(-c2cccc(Cl)c2C)c1C(=O)OC	936
O=C(CN1CCN(C(=O)c2cc3cn(C4CCCC4)cc3s2)CC1)N1CCCC1	1150
CN(C)C(=O)c1ccc2c(c1)N(CC(=O)N1CCN(C(=O)c3ccco3)CC1)C(=O)C1CCCCN21 (stereo not given)	667
CCC(=O)N(C1CCOCC1)C1CCN(S(=O)(=O)c2ccc(Cl)c(C)c2)CC1	954
CCOC(=O)c1c(C)[nH]c(C(=O)N2CCCC(C(=O)NCCCN3CCCC3)C2)c1C (stereo not given)	589
CCC(=O)NCc1nc2c(n1CC)CN(C(=O)c1cccc(Br)c1)CC2	596
CC1(C(=O)NCc2ccc(F)cc2)CCCN(C(=O)Nc2cccc(Cl)c2)C1 (stereo not given)	967
CCN(CC)CCOCCOC(=O)C(CC)(CC)c1ccccc1	763
COCCNC(=O)Cc1ccc(NS(=O)(=O)c2ccccc2Cl)cc1	676
CCn1cc(S(=O)(=O)N2CC(Oc3cccc(-c4nc(C)no4)c3)C2)cn1	839
Cc1c(C(=O)N2CCOCC2)cnn1-c1cc(-c2nc(C(C)(C)C)no2)ccn1	931
Cc1ccccc1NC(=O)C1CCN(S(C)(=O)=O)c2ccccc2O1 (stereo not given)	867
CCCNC(=O)CN1C(=O)C2CCCCN2c2ccc(S(=O)(=O)N3CCCC3)cc21 (stereo not given)	800
CC(C)NC(=O)c1n[nH]c2c1CCCCCC2	754
O=C(Nc1ccc(C2(C(=O)NCC3CCCO3)CC2)cc1)c1cccs1 (stereo not given)	753
CN(Cc1ccccc1)C(=O)c1ccc(-c2cccs2)nc1	920
CCOC(=O)N1CCN(C(=O)CCc2csc(NC(=O)c3ccc(F)cc3)n2)CC1	713

SMILES	RP-LC retention time [s]
O=C1CCC2(CCN1)CCN(S(=O)(=O)c1ccc(Cl)cc1)CC2	758
CCCNc1cc(N2CCC(CCC(=O)NC(CC)CC)CC2)ncn1	656
CC(C)n1cnc(S(=O)(=O)N2CCCC(C(=O)NCCCc3ccccc3)C2)c1 (stereo not given)	806
CCOC(=O)CNC(=O)Nc1ccc(-c2nc(-c3cc(C)ccc3C)co2)cc1	1040
Cc1ccc(N2CC(c3nc(-c4ccc(N(C)C)cc4)no3)CC2=O)cc1Cl (stereo not given)	1160
Cc1nc(-c2csc(S(=O)(=O)N3CCCC(C(=O)Nc4ccc(C#N)cc4)C3)c2)no1 (stereo not given)	935
Cn1cc(-c2nc(C(=O)Nc3ccccc3F)cs2)c2cccnc21	1040
O=C(CCNC(=O)Cn1cnc2ccccc2c1=O)NCCc1c[nH]c2ccccc12	668
Cc1ccc(NC(=O)N2CC(c3nc(C(C)C)nn3C)C2)cc1C	710
N#Cc1cccc(S(=O)(=O)NC2CCc3nn(CC4CC4)c(=O)n3CC2)c1 (stereo not given)	706
Cc1cc(=O)n(CC(=O)NCc2ccccc2)c(N2CCCCC2)n1	652
Cc1c(Cl)cccc1NC(=O)C1CCN(S(=O)(=O)c2ccc3c(c2)NC(=O)CO3)CC1	778
COCCCNC(=O)C1CCCN(c2ccc(-c3ccc(C)c(C)c3)nn2)C1 (stereo not given)	647
Cc1nc2cc(-c3noc(Cc4ccc(Br)cc4)n3)ccc2n(C)c1=O	1020
Cc1cc(N2CCN(C(=O)c3ccc4c(c3)OCO4)CC2)nc2nnc(C)n12	595
COc1cccc(NC(=O)Cc2c(C)nn(-c3nc(-c4ccc(Cl)cc4)cs3)c2C)c1	1230
Cc1c2ccncc2c(C)c2c1sc1ccccc12	714
Cc1cccc(NC(=O)CN2C(=O)C3CCCN3C(=O)c3ccc(F)cc32)c1C (stereo not given)	731
Cc1cc(C)cc(N2CCC(NC(=O)Nc3ccccc3C)C2=O)c1 (stereo not given)	890
CSc1cccc(NC(=O)c2cn(C)nc2S(=O)(=O)N2CCSCC2)c1	973
Cc1ccc(N2CCN(c3nccn4c(=O)n(CC(=O)Nc5ccc(F)c(Cl)c5)nc34)CC2)cc1	1040
